Here are results for six molecules from US20260184750A1, “CONJUGATE COMPRISING PEPTIDE OF NOVEL SEQUENCE AND GLYCYRRHIZIN, AND PHARMACEUTICAL COMPOSITION FOR PREVENTING OR TREATING OBESITY COMPRISING SAME” (IUCF-HYU (INDUSTRY-UNIVERSITY COOPERATION FOUNDATION …, priority 2022, published 2026).

Data set [1] has as its system adipocytes (mature 3T3-L1). Briefly: Confocal fluorescence imaging of peptide binding to adipocyte outer membrane. The note with it: 1 μM FITC-labeled peptide, 30 minutes, 37° C. The data set is classed as cell-based. Here is the method: The binding of the candidate peptides to the adipocyte outer membrane was confirmed through fluorescence imaging. Specifically, differentiated 3T3-L1 preadipocytes were treated with 1 μM of the finally selected FITC-labeled candidate peptides in Table 2 dissolved in DMEM for 30 minutes at 37° C. After washing with PBS, cell nuclei were stained using 4′6,-diamidino-2-phenylindole (DAPI). Fluorescence images were taken using a confocal microscope (green fluorescence (FITC)=488 nm, blue fluorescence (DAPI)=405 nm).

Data set [2] relates to adipocytes (mature 3T3-L1). Put plainly: FACS targeting ability of FITC-labeled peptides in adipocytes. As to conditions: 37° C.; for targeting ability (FACS): adipocytes (mature 3T3-L1), 1 μM FITC-labeled peptide, 30 minutes. It is filed as cell-based. Here is the method:
To conduct cell experiments in adipocytes, preadipocytes were differentiated into adipocytes. Specifically, 3T3-L1 preadipocytes were first seeded in a well plate of a size suitable for the experimental purpose, and then cultured to 80% to 90% confluence. Thereafter, the cells were treated with an adipocyte differentiation induction reagent (insulin 10 μg/ml, dexamethasone 0.4 μg/ml, 3-isobutyl-1-methylxanthine 111 μg/ml) for three days. After washing the adipocyte differentiation induction reagent with phosphate-buffered saline (PBS), the cells were treated with Dulbecco's modified eagle medium (DMEM) containing insulin (10 μg/ml) every two days, and differentiation was induced for up to 14 days to generate adipocytes. Thereafter, on day 14 of the adipocyte differentiation induction, the cells were fixed with 4% paraformaldehyde and then treated with the Oil red O staining solution for two hours. In addition, the staining solution accumulated inside the cells was eluted with isopropanol, and a microplate reader was used to verify whether fatty acids were accumulated inside the adipocytes at a wavelength of 510 nm to finally confirm the differentiation.
The targeting effect of the above-described candidate peptides was quantitatively verified in actual adipocytes and preadipocytes. Specifically, differentiated 3T3-L1 preadipocytes were treated at 37° C. for 30 minutes with 1 μM of the final FITC-labeled candidate peptides dissolved in DMEM.
After washing with PBS, cells were detached from the well plate using a trypsin-ethlyenediaminetetraacetic acid (EDTA) (0.5%) solution and centrifuged at 1100 rpm for three minutes to obtain sedimented cells. […]
The finally selected candidate peptide (adipose tissue homing peptide: AHP) (SEQ ID NO: 14: KGRRAKD) was quantitatively compared with another adipose tissue targeting sequence (adipose targeting sequence: ATS) (SEQ ID NO: 22: KGGRAKD) in adipocytes. […]

Data set [3] in a line: Pharmacokinetics: blood residual concentration after intraperitoneal injection. The data set is classed as in vivo, C57BL/6J. The note with it: 13.5 mg/kg intraperitoneal. Here is the method:
The pharmacokinetic indices were calculated by measuring the blood residual concentrations of GL derivatives. Specifically, GL and GL-PEG-AHP were injected intraperitoneally in an amount of 13.5 mg/kg into animals (C57BL/6J, 6 weeks old, 5 per cage). At each time point (0, 20, 30, 120, 240, and 480 minutes) following the intraperitoneal injection, the animals were sacrificed, and 300 μl of blood samples were obtained through the abdominal vein. The obtained blood samples were placed in EDTA tubes and centrifuged at 824×g for 30 minutes at 4° C. 50 μl of the supernatant was mixed with 100 μl of methanol, and the resulting mixture was vortexed for 10 minutes. Thereafter, centrifugation was performed again at 10,000×g for 10 minutes. 100 μl of the supernatant was mixed with 900 μl of the mobile phase, and the resulting mixture was filtered through a 0.45 μm syringe filter, and HPLC was performed (HPLC column: C8 column; mobile phase=methanol:acetonitrile:water:acetic acid=55:23.7:19.2:0.68; flow rate: 1 ml/min; injection volume: 20 μl) to measure the blood residual concentration of the drug over time. Detection was performed through UV at 245 nm.

A further data set deals with ABCA1. Briefly: ABCA1 cell membrane expression in adipocytes treated with LXR inhibitor GSK2033. The data set is classed as cell-based. The note with it: adipocytes treated with GL derivatives. Here is the method: It was confirmed through fluorescence images whether the cell membrane expression level of ABCA1 by GL derivatives is reduced in adipocytes by GSK2033, an LXR inhibitor. […] Specifically, 4×10^4 adipocytes were seeded in a 24-well plate and treated with each group (control, GL, PEG, AHP, GL-PEG, and GL-PEG-AHP) for 24 hours on day 14 of adipocyte differentiation. The cells were fixed using 4% PFA. After washing with PBS, the cells were incubated with 10% goat serum and 0.02% Tween-20 for 30 minutes at room temperature. The cells were treated with the ABCA1 antibody (Host: rabbit, 1:300) in PBST at room temperature for two hours. After washing with PBST, the cells were treated with an FITC-labeled secondary antibody (goat-anti-rabbit, 1:500) at room temperature for one hour. After washing with PBS, the cells were treated with DAPI for one minute at room temperature, and then fluorescence images were obtained.

For data set [4], the system named is obese adipocytes (FFA-treated mature 3T3-L1 cells). Put plainly: Anti-hypertrophic effect in obese adipocytes (Oil Red O). The data set is classed as cell-based. How it is done:
To induce obesity in adipocytes at the cell experiment level, cells were treated with saturated fatty acids, and the process of inducing obese adipocytes and performing the experiment at the cell experiment level are shown in FIG. 16. Specifically, a saturated fatty acid (free fatty-acid) (FFA, palmitic acid) was dissolved in a 2% w/v bovine serum albumin (BSA) and 0.5% ethanol DMEM solution to a concentration of 500 μM. After treating with FFA for three days, the cells were washed, subjected to an Oil Red O staining solution process, and then the amount of accumulated fatty acids was measured through the absorbance at 510 nm. The results are shown in FIG. 17, and it was confirmed even through qualitative observation that the size of single fat droplets was very different. […]
The anti-hypertrophy effect of GL derivatives in obesity-induced adipocytes according to the concentration was confirmed at the cell experiment level. […] The amount of fatty acids accumulated inside the cells was measured through the Oil Red O staining process on day 18 of differentiation. […]
It was confirmed whether the anti-hypertrophic effect according to the expected mechanism of GL derivatives differed depending on the fatty acid treatment method. […] On day 18 of differentiation, the amount of fatty acids accumulated inside the cells was measured through the Oil Red O staining process.

Data set [5] deals with T1, prohibitin (PHB) on the surface of adipocytes (mature 3T3-L1) (UniProt P67778 2-272, limits assumed).
T1 construct: whole, on cells
T1 sequence (looked up): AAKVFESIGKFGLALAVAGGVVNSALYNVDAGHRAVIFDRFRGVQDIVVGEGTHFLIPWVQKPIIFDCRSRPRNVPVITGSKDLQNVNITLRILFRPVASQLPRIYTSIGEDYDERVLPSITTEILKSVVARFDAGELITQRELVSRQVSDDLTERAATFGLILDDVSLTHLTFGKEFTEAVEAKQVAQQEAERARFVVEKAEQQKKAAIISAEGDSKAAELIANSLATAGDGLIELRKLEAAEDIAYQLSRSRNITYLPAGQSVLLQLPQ
Briefly: FACS of FITC-labeled peptide on mature 3T3-L1 adipocytes, 30 min at 37 °C.

Like-named read-outs stand apart in the source and are kept apart here. No end group written: not given here.

Regarding “7mer 001: adipose tissue homing peptide, SEQ ID NO: 14: KGRRAKD; conjugated form SEQ ID NO: 1: GKGRRAKDC”, the “adipocyte targeting ability (confocal fluorescence images)” value in data set [1] was “best adipocyte targeting ability”. Moreover, the “adipocyte targeting effect compared with ATS (FACS)” value in data set [2] (1 μM FITC-labeled AHP and ATS, 30 min) is “not inferior in efficacy to ATS”. For the same molecule, in data set [2], the “targeting ability (FACS)” value is on record as “most effective targeting ability”.
With `CC1(C)[C@@H](O[C@H]2O[C@H](C(=O)O)[C@@H](O)[C@H](O)[C@H]2O[C@@H]2O[C@H](C(=O)O)[C@@H](O)[C@H](O)[C@H]2O)CC[C@]2(C)[C@H]3C(=O)C=C4[C@@H]5C[C@@](C)(C(=O)O)CC[C@]5(C)CC[C@@]4(C)[C@]3(C)CC[C@@H]12` [GL, glycyrrhizin], in data set [3] (C57BL/6J, mouse, plasma, ip), the AUC(0-t) – broadly, the area under the concentration-time curve up to a stated or last time point – was 114 µg·h/mL and the half-life (in general, how long it takes for the measured level to halve) is 3.3 h. The Cmax (commonly the peak of the concentration-time curve) in data set [3] (C57BL/6J, mouse, plasma, ip, read-out: Cmax) came out at 43800 ng/mL. Besides, the Tmax (in general, the time at which the peak concentration occurs) in data set [3] (C57BL/6J, mouse, plasma, ip, read-out: Tmax (converted)) is 0.333 h.
As for `Cc1cc(C)c(S(=O)(=O)N(Cc2ccc(-c3cccc(S(C)(=O)=O)c3)cc2)Cc2ccc(C(F)(F)F)o2)c(C)c1` [GSK2033], the “expression of ABCA1 in GL derivative groups by GSK2033 treatment” value with ABCA1 is given as “suppressed”.
With “GL-PEG-AHP: adipose tissue-targeting glycyrrhizin conjugate: GL amide-bonded to thiol-PEG-amine, disulfide-bonded to AHP (SEQ ID NO: 1: GKGRRAKDC) (also: glycyrrhizin-PEG conjugate, Cys9 disulfide-linked to thiol-PEG-GL)”, in data set [3], the Cmax stood at 75200 ng/mL, the T1/2 was found to be 3.45 h and the Tmax came out at 0.333 h. In data set [4] (anti-hypertrophic effect, Oil Red O, day 18 of differentiation), the “difference in drug efficacy between pretreatment and co-treatment” value is recorded as “greatest efficacy difference”. In data set [4] (drug pretreatment, 25, 50, 100, 200, 400 μM, ranking between groups), the anti-hypertrophic effect entry was “most effective anti-hypertrophic effect”.
In the case of “GRRAK: 5mer candidate peptide, SEQ ID NO: 6”, in data set [2], the “targeting ability (FACS)” value is “did not have a significant targeting ability”.

B1: 5mer candidate peptide GRRAK, FITC-labeled (peptide)
peptide: GRRAK
modifications: also: FITC-labeled, position not given here
notes: Described as a 'working region'; also called working region GRRAK
Turning to B1, in data set [5], the binding result is “no binding (tested: 1 µM)”.
